Assay results taken from US20110015223A1, “Compounds and methods for treatment of cancer-related anemia” (FibroGen, Inc., priority 2006, published 2011).
Marks after values point to notes of the source that are not given here.

Assays:
[1] = test system: A549 human lung tumor-bearing nude mice; assay: Plasma erythropoietin (EPO) by ELISA in nude mice with subcutaneous A549 lung tumors (Example 2); type: in vivo; details: for Mean [EPO]: four weeks, plasma 6 hours after final dose; for plasma EPO levels compared to vehicle-treated control animals: in words, Compound A 20 or 60 mg/kg, Compound C 20 mg/kg, Compound D 20 or 60 mg/kg as worded in text
From the text: (§1) Immuno-compromised athymic CD-1 nu/nu nude mice males (5-6 weeks old) were used in this study (Charles River Laboratories, Wilmington, Mass.). Animals were maintained in a HEPA-filtered environment during the experimental period. Cages, food, and bedding were autoclaved. Animal diets were obtained from Harlan Teklad (Madison, Wis.).
Compounds of the invention were formulated in an aqueous vehicle consisting of 0.1% (w/w) Polysorbate 80 (JT Baker) and 0.5% (w/w) high viscosity carboxymethyl cellulose sodium (Spectrum) to achieve a final 10 ml/kg dosing (oral gavage).
The A549 human lung cancer cell line was used. This cell line has been characterized extensively.
(§2) A stock tumor was developed by subcutaneoulsy injecting an A549 cell suspension into stock mice. The resulting tumor was maintained subcutaneously as tumor stock prior to use. Tumor implantation was performed when the stock tumors were in log phase of growth. […] Necrotic tissues were dissected away and viable tissues were cut into 1-2 mm^2 pieces. Tumor fragments were then transplanted subcutaneously to the right flank of the nude mice.
Administration of compounds of the present invention (administered three-times per week) was initiated when the inoculated tumors reached approximately 100 mm^3, and continued for four weeks thereafter.
Plasma was isolated from the animals 6 hours following administration of the final dose of compound. Plasma erythropoietin (EPO) levels were determined by ELISA.

[2] = test system: H-460-GFP human lung tumor-bearing nude mice (orthotopically xenografted); assay: RBC, HGB and HCT in nude mice with orthotopic H-460-GFP lung tumors (Example 3); type: in vivo; details: 20 mg/kg three-times per week; whole blood 6 hours after final dose; orthotopic H-460-GFP tumors; mean +/- SD
Method: (§3) The effectiveness of administration of compounds of the present invention at preventing the development of anemia of cancer or at treating anemia of cancer in an animal model of cancer was examined. […] Genetically-engineered tumors of GFP-transfected H-460 cells were used in this study. The human H-460 lung cancer cell line used was obtained from the National Cancer Institute. […] Compounds were administered three-times per week
Whole blood was collected from these animals 6 hours following administration of the final dose of compound. Various measurable blood parameters indicative of erythropoiesis and treatment of anemia (red blood cell count, hemoglobin, and hematocrit) were analyzed.

[3] = test system: human H-460 lung cancer tumor-bearing nude mice; assay: Blood parameters in nude mice with subcutaneous H-460 lung tumors (anemia of cancer, Example 1); type: in vivo; details: M, W, F x 4, subcutaneous H-460 tumors, study endpoint
From the text: as §1
Compounds of the invention were pre-formulated in an aqueous vehicle consisting of 0.1% (w/w) Polysorbate 80 (JT Baker) and 0.5% (w/w) high viscosity carboxymethyl cellulose sodium (Spectrum) to achieve a final 10 ml/kg dosing (oral gavage).
as §2, with “The human H-460 lung cancer cell line used” for “A stock tumor”, “obtained from the National Cancer Institute. […]” for “developed by subcutaneoulsy injecting an A549 cell suspension into stock mice.”, “maintained in nude mice” for “maintained”
Treatment (administration of compounds of the present invention) was started when the inoculated tumors reached approximately 100 mm^3, and continued for four weeks.
These include red blood cell counts, hemoglobin, hematocrit, mean corpuscular volume, mean corpuscular hemoglobin, mean corpuscular hemoglobin concentration, red blood cell distribution, reticulocytes, reticulocyte counts, and immature reticulocyte fraction.

[4] = test system: H-460-GFP human lung tumor-bearing nude mice (orthotopically xenografted); assay: Plasma erythropoietin (EPO) by ELISA in nude mice with orthotopic H-460-GFP lung tumors (Example 3); type: in vivo; details: orthotopic H-460-GFP tumors; for plasma EPO levels compared to vehicle-treated control animals: in words, Compound A 20 or 60 mg/kg, Compounds C, D, E 20 mg/kg
Method: as §3
Plasma was isolated from these animals 6 hours following administration of the final dose of compound. Plasma erythropoietin (EPO) levels were determined by ELISA.

[5] = test system: OVCAR3 tumor-bearing female CB.17 SCID mice; assay: Hematocrit in OVCAR3 ovarian tumor-bearing SCID mice (Example 5, FIG. 2); type: in vivo; details: in words (FIG. 2); 60 mg/kg; 29 days treatment
From the text: Tumors used in this study were OVCAR3 ovarian tumors. OVCAR3 tumor fragments (1 mm^3) were implanted subcutaneously into the flanks of female CB.17 SCID mice. The number of animals in each treatment group was 10. […] After 29 days treatment, animals were sacrificed and blood was collected for determination of hematocrit (HCT).

[6] = test system: MDA-MB-435-GFP breast tumor-bearing female CD-1 nude mice; details: in words (FIG. 1); 20 mg/kg or 60 mg/kg; 33 days treatment; MDA-MB-435-GFP breast tumors
Method: The effectiveness of methods and compounds of the present invention at treating or preventing the development of anemia of cancer was examined as follows. In this study, experiments were performed essentially as described above in Example 1, with the following modifications. Tumors used in this study were MDA-MB-435-GFP breast tumors, and surgical orthotopic tumor fragment implantation was done directly into breast tissue of female CD-1 nude animals. The number of animals in each group was 15. […] After mean tumor volume in the vehicle control group exceeded 1 cm^3, animals were sacrificed (33 days treatment) and hematocrit was measured.

[7] = 20 mg/kg oral gavage three-times per week
[8] = 20 mg/kg three-times per week, plasma 6 hours after final dose

Row | Compound | Mean [EPO] [1, 7] | plasma EPO levels compared to vehicle-treated control animals [1] | HCT [2] | HGB [2] [g/dL] | RBC [2] | Abs Retic, reticulocyte count ([3]; 20 mg/kg PO) | HCT, hematocrit ([3]; 20 mg/kg PO) [%] | HGB, hemoglobin ([3]; 20 mg/kg PO) [g/dL] | IRF, immature RET fraction ([3]; 20 mg/kg PO) | MCH, mean corpuscular hemoglobin ([3]; 20 mg/kg PO) [pg] | MCHC, MCH concentration ([3]; 20 mg/kg PO) [g/dL] | MCV, mean corpuscular volume ([3]; 20 mg/kg PO) [fL] | RBC, red blood cells ([3]; 20 mg/kg PO) [µL⁻¹] | RDW, RBC distribution width ([3]; 20 mg/kg PO) [%] | RET, reticulocytes ([3]; 20 mg/kg PO) [%] | Average [EPO] [4, 8] [pg/mL] | plasma EPO levels compared to vehicle-treated control animals [4] | hematocrit levels in OVCAR3 tumor-bearing animals [5] | other results
1 | COc1ccc(Oc2ccc3c(O)c(C(=O)NCC(=O)O)ncc3c2)cc1 [Cmpd C, {[4-Hydroxy-7-(4-methoxy-phenoxy)-isoquinoline-3-carbonyl]-amino}-acetic acid] | 3581* pg/ml | increased | 47.2 +/− 5.6% | 16.3 ± 1.6 | 9.8 +/− 1.1 | 457 | 41.1 | 14.0 | 0.56 | 14.9 | 34.1 | 43.8 | 9.36e+06 | 22.3 | 4.9 | 5898 | elevated | – | –
2 | C[C@H](NC(=O)c1ncc2cc(Oc3ccccc3)ccc2c1O)C(=O)O [Cmpd B, (S)-2-[(4-Hydroxy-7-phenoxy-isoquinoline-3-carbonyl)-amino]-propionic acid] | – | – | – | – | – | 552 | 37.7 | 12.7 | 0.56 | 14.5 | 33.7 | 43.0 | 8.78e+06 | 21.7 | 6.3 | – | – | – | Abs Retic, reticulocyte count ([3]; 6 mg/kg PO): 653; HCT, hematocrit ([3]; 6 mg/kg PO): 37.7%; HGB, hemoglobin ([3]; 6 mg/kg PO): 12.7 g/dL; IRF, immature RET fraction ([3]; 6 mg/kg PO): 0.64; MCH, mean corpuscular hemoglobin ([3]; 6 mg/kg PO): 14.6 pg; MCHC, MCH concentration ([3]; 6 mg/kg PO): 33.8 g/dL; MCV, mean corpuscular volume ([3]; 6 mg/kg PO): 43.2 fL; RBC, red blood cells ([3]; 6 mg/kg PO): 8.71e+06 µL⁻¹; RDW, RBC distribution width ([3]; 6 mg/kg PO): 21.4%; RET, reticulocytes ([3]; 6 mg/kg PO): 7.5%
3 | Cc1nc(C(=O)NCC(=O)O)c(O)c2ccc(Oc3ccccc3)cc12 [Cmpd D, [(4-Hydroxy-1-methyl-7-phenoxy-isoquinoline-3-carbonyl)-amino]-acetic acid] | 489 pg/mL | increased | 45.6 +/− 1.8% | 15.4 ± 0.6 | 9.3 +/− 0.5 | – | – | – | – | – | – | – | – | – | – | 2176 | elevated | increased | Mean [EPO] ([1]; 6 mg/kg oral gavage three-times per week): 455 pg/mL
4 | rhEPO: recombinant human erythropoietin (EPO) | – | – | – | – | – | – | – | – | – | – | – | – | – | – | – | – | – | – | Average [EPO] ([4]; rhEPO group, dose not given, plasma): 215 pg/mL
5 | O=C(O)CNC(=O)c1nc(Cl)c2ccccc2c1O [Cmpd A] | – | – | – | – | – | 559 | 40.4 | 13.3 | 0.63 | 15.1 | 33.1 | – | – | 21.3 | 6.4 | – | – | increased | Abs Retic, reticulocyte count ([3]; 60 mg/kg PO): 539; HCT, hematocrit ([3]; 60 mg/kg PO): 39.5%; HGB, hemoglobin ([3]; 60 mg/kg PO): 13.5 g/dL; IRF, immature RET fraction ([3]; 60 mg/kg PO): 0.65; MCH, mean corpuscular hemoglobin ([3]; 60 mg/kg PO): 15.6 pg; MCHC, MCH concentration ([3]; 60 mg/kg PO): 34.2 g/dL; RDW, RBC distribution width ([3]; 60 mg/kg PO): 23.6%; RET, reticulocytes ([3]; 60 mg/kg PO): 6.5%; hematocrit levels compared to non-treated control animals with cancer [6]: increased
